For one test, the system named is A2780 cells. The test is described as follows: In-Vitro Cell Proliferation Assay (SRB).
A further test addresses NAMPT (Homo sapiens (Human), UniProt P43490). The test can be described thus: Biochemical Inhibition Assay (NAMPT enzymatic reaction, NMN quantified by mass spectrometry). The conditions noted are these: 33 nM recombinant His-tagged NAMPT, 1 μM NAM, 30 min at rt. How it is done: Assay 1: Biochemical Inhibition Assay
NAMPT protein purification. Recombinant His-tagged NAMPT was produced in E. coli cells, purified over a Ni column, and further purified over a size-exclusion column by XTAL Biostructures.
The NAMPT Enzymatic Reaction. The NAMPT enzymatic reactions were carried out in Buffer A (50 mM Hepes pH 7.5, 50 mM NaCl, 5 mM MgCl2, and 1 mM THP) in 96-well V-bottom plates. The compound titrations were performed in a separate dilution plate by serially diluting the compounds in DMSO to make a 100× stock. […] The compound and enzyme mixture was incubated for 15 min at rt, then 10 μL of 10× substrate and co-factors in Buffer A were added to the test well to make a final concentration of 1 μM NAM, […] 5-Phospho-D-ribose 1-diphosphate (PRPP), and 2.5 mM Adenosine 5′-triphosphate (ATP). The reaction was allowed to proceed for 30 min at rt, then was quenched with the addition of 11 μL of a solution of formic acid and L-Cystathionine to make a final concentration of 1% formic acid and 10 μM L-Cystathionine. Background and signal strength was determined by addition (or non-addition) of a serial dilution of NMN to a pre-quenched enzyme and cofactor mix.
Quantification of NMN. A mass spectrometry-based assay was used to measure the NAMPT reaction product, β-nicotinamide mononucleotide (NMN), and the internal control (L-Cystathionine). NMN and L-Cystathionine were detected using the services of Biocius Lifesciences with the RapidFire system. In short, the NMN and L-Cystathionine were bound to a graphitic carbon cartridge in 0.1% formic acid, eluted in 30% acetonitrile buffer, and injected into a Sciex 4000 mass spectrometer. The components of the sample were ionized with electrospray ionization and the positive ions were detected. […] The fragments are quantified and the analyzed by the following method.
Determination of IC50 Values. First, the NMN signal was normalized to the L-Cystathionine signal by dividing the NMN signal by the L-Cystathionine signal for each well. The signal from the background wells were averaged and subtracted from the test plates.

Where [1] appears, read: Homo sapiens, A2780, 72 h, read-out: Cell Proliferation (IC50).
Where [2] appears, read: read-out: Cell Proliferation (IC50), A2780 cells, 72 h, sulforhodamine B.
The mark [3] stands for this setting: Homo sapiens, A2780, 72 h, read-out: Cell Proliferation (IC50), A2780 cells, 72 h, sulforhodamine B.

Read-outs that look alike come from different tables or passages of the source.

Chain of NAMPT (P43490 whole entry): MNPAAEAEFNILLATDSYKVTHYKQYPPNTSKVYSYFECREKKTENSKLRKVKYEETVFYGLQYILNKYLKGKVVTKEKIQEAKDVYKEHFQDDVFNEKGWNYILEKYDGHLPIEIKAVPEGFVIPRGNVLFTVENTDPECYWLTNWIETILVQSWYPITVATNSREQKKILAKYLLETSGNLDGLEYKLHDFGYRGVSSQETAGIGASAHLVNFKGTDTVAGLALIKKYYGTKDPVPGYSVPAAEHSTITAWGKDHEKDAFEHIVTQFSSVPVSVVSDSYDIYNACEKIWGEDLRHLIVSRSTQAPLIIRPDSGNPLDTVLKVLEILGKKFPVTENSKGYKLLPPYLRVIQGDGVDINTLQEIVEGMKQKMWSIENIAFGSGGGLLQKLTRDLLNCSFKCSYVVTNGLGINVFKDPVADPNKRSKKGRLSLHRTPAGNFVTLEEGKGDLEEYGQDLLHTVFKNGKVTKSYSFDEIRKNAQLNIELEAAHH

Regarding `CC(C)CN1CCC([S+]([O-])c2ccc(CNC(=O)c3cc4ccncc4o3)nc2)CC1` (racemic) [Example 102, Furo[2,3-c]pyridine-2-carboxylic acid [5-(1-isobutyl-piperidine-4-sulfinyl)-pyridin-2-ylmethyl]-amide (racemic)], the IC50 amounted to 25.6 nM in the test with A2780 cells (setting [1]) and 69.3 nM on NAMPT.
For the compound `O=C(NCc1ccc([S+]([O-])c2cc(F)cc(F)c2)cn1)N1Cc2ccncc2C1` (single isomer, unassigned; enantiomer 1) [Example 159, N-[[5-(3,5-difluorophenyl)sulfinyl-2-pyridyl]methyl]-1,3-dihydropyrrolo[3,4-c]pyridine-2-carboxamide (enantiomer 1)], the IC50 in the test on A2780 cells (setting [2]) turned out to be 2000 nM; at NAMPT, 635 nM.
For `O=C(NCc1ccc([S+]([O-])c2cc(F)cc(F)c2)cn1)N1Cc2ccncc2C1` (single isomer, unassigned; enantiomer 2) [Example 160, N-[[5-(3,5-difluorophenyl)sulfinyl-2-pyridyl]methyl]-1,3-dihydropyrrolo[3,4-c]pyridine-2-carboxamide (enantiomer 2)] the same measures were 19.6 nM and 20.1 nM.
Take `O=C(NCc1ccc(S(=O)(=O)c2cc(F)cc(F)c2)cn1)c1cnc2[nH]ncc2c1` [Example 1, 1H-Pyrazolo[3,4-b]pyridine-5-carboxylic acid [5-(3,5-difluoro-benzenesulfonyl)-pyridin-2-ylmethyl]-amide]: the IC50 in the test with A2780 cells (setting [1]) stood at 91 nM; on NAMPT, 56.3 nM.
The matching figures for `O=C(NCc1ccc(S(=O)(=O)c2cc(F)cc(F)c2)cn1)c1cnc2nccn2c1` [Example 2, Imidazo[1,2-a]pyrimidine-6-carboxylic acid [5-(3,5-difluoro-benzenesulfonyl)-pyridin-2-ylmethyl]-amide]: 52.6 nM and 6.5 nM.
For `O=C(NCc1ccc(S(=O)(=O)c2cc(F)cc(F)c2)cn1)c1ccc2nccn2c1` [Example 4, Imidazo[1,2-a]pyridine-6-carboxylic acid [5-(3,5-difluoro-benzenesulfonyl)-pyridin-2-ylmethyl]-amide] the same measures were 9.2 nM and 7.1 nM.
`O=C(NCc1ncc(S(=O)(=O)c2ccccc2)cn1)c1cnc2[nH]ncc2c1` [Example 6, 1H-Pyrazolo[3,4-b]pyridine-5-carboxylic acid (5-benzenesulfonyl-pyrimidin-2-ylmethyl)-amide]: the IC50 with A2780 cells (setting [3]) is 2000 nM; on NAMPT it was 108 nM.
On to `O=C(NCc1ncc(S(=O)(=O)c2ccccc2)cn1)c1cc2cnccc2[nH]1` [Example 7, 1H-Pyrrolo[3,2-c]pyridine-2-carboxylic acid (5-benzenesulfonyl-pyrimidin-2-ylmethyl)-amide], for which the IC50 was 131 nM in the test with A2780 cells (setting [1]) and 150 nM at NAMPT.
Turning to `O=C(NCc1ncc(S(=O)(=O)c2ccccc2)cn1)c1ccc2nccn2c1` [Example 8, Imidazo[1,2-a]pyridine-6-carboxylic acid (5-benzenesulfonyl-pyrimidin-2-ylmethyl)-amide], the IC50 in the test on A2780 cells (setting [3]) came to 459 nM; on NAMPT, 352 nM.
The matching figures for `O=C(NCc1ccc(S(=O)(=O)c2cccc(C(F)(F)F)c2)cn1)c1ccc2nccn2c1` [Example 10, Imidazo[1,2-a]pyridine-6-carboxylic acid [5-(3-trifluoromethyl-benzenesulfonyl)-pyridin-2-ylmethyl]-amide]: 8.3 nM and 12.7 nM.
With `O=C(NCc1ncc(S(=O)(=O)c2ccccc2)cn1)c1cnc2nccn2c1` [Example 12, Imidazo[1,2-a]pyrimidine-6-carboxylic acid (5-benzenesulfonyl-pyrimidin-2-ylmethyl)-amide], the IC50 with A2780 cells (setting [1]) was 828 nM; at NAMPT, 19.1 nM.
With `O=C(NCc1ccc(S(=O)(=O)c2cccc(OC(F)(F)F)c2)cn1)c1ccc2nccn2c1` [Example 13, Imidazo[1,2-a]pyridine-6-carboxylic acid [5-(3-trifluoromethoxy-benzenesulfonyl)-pyridin-2-ylmethyl]-amide], the IC50 stood at 13.6 nM with A2780 cells (setting [1]) and 8.5 nM on NAMPT.
The matching figures for `O=C(NCc1ccc(S(=O)(=O)c2cccc(C(F)(F)F)c2)cn1)c1cnc2[nH]ncc2c1` [Example 16, 1H-Pyrazolo[3,4-b]pyridine-5-carboxylic acid [5-(3-trifluoromethyl-benzenesulfonyl)-pyridin-2-ylmethyl]-amide]: 16.3 nM and 39.4 nM.
On to `O=C(NCc1ccc(S(=O)(=O)c2cccc(C(F)(F)F)c2)cn1)c1cc2cnccc2[nH]1` [Example 17, 1H-Pyrrolo[3,2-c]pyridine-2-carboxylic acid [5-(3-trifluoromethyl-benzenesulfonyl)-pyridin-2-ylmethyl]-amide], for which the IC50 in the test with A2780 cells (setting [1]) is 9.1 nM; on NAMPT, 19.1 nM.
The matching figures for `O=C(NCc1ccc(S(=O)(=O)c2cccc(C(F)(F)F)c2)cn1)c1cnc2nccn2c1` [Example 18, Imidazo[1,2-a]pyrimidine-6-carboxylic acid (5-(3-trifluoromethyl-benzenesulfonyl)-pyridin-2-ylmethyl]-amide]: 11.7 nM and 4.7 nM.
For `O=C(NCc1ccc(S(=O)(=O)c2cccc(OC(F)(F)F)c2)cn1)c1cnc2nccn2c1` [Example 20, Imidazo[1,2-a]pyrimidine-6-carboxylic acid [5-(3-trifluoromethoxy-benzenesulfonyl)-pyridin-2-ylmethyl]-amide] the same measures were 11.4 nM and 3.4 nM.
As to `O=C(NCc1ccc(S(=O)(=O)c2cccc(OC(F)(F)F)c2)cn1)c1cc2ccncc2o1` [Example 23, Furo[2,3-c]pyridine-2-carboxylic acid [5-(3-trifluoromethoxy-benzenesulfonyl)-pyridin-2-ylmethyl)-amide], the IC50 in the test on A2780 cells (setting [1]) was determined as 10.8 nM; on NAMPT, 6.1 nM.
For `O=C(NCc1ccc(S(=O)(=O)C2CCNCC2)cn1)c1cc2ccncc2o1` [Example 26, Furo[2,3-c]pyridine-2-carboxylic acid [5-(piperidine-4-sulfonyl)-pyridin-2-ylmethyl]-amide] the same measures were 2000 nM and 204 nM.
Consider `O=C(NCc1ccc(S(=O)(=O)C2CCNCC2)cn1)c1ccc2nccn2c1` [Example 27, Imidazo[1,2-a]pyridine-6-carboxylic acid [5-(piperidine-4-sulfonyl)-pyridin-2-ylmethyl]-amide], for which the IC50 with A2780 cells (setting [1]) amounted to 930 nM; on NAMPT it was 572 nM.
For the compound `O=C(NCc1ccc(S(=O)(=O)c2ccc(N3CCOCC3)cc2)cn1)c1ccc2nccn2c1` [Example 30, Imidazo[1,2-a]pyridine-6-carboxylic acid (5-(4-morpholin-4-yl-benzenesulfonyl)-pyridin-2-ylmethyl]-amide], the IC50 in the test on A2780 cells (setting [3]) was found to be 1.6 nM; on NAMPT, 7.2 nM.
For the compound `O=C(NCc1ccc(S(=O)(=O)c2ccc(N3CCOCC3)cc2)cn1)c1cnc2[nH]ncc2c1` [Example 31, 1H-Pyrazolo[3,4-b]pyridine-5-carboxylic acid [5-(4-morpholin-4-yl-benzenesulfonyl)-pyridin-2-ylmethyl]-amide], the IC50 turned out to be 7.3 nM in the test on A2780 cells (setting [1]) and 19.3 nM on NAMPT.
Turning to `COc1cccc(S(=O)(=O)c2ccc(CNC(=O)c3cc4ccncc4o3)nc2)c1` [Example 32], the IC50 in the test with A2780 cells (setting [1]) was determined as 9.1 nM; on NAMPT, 6.1 nM.
The matching figures for `COc1cccc(S(=O)(=O)c2ccc(CNC(=O)c3cnc4nccn4c3)nc2)c1` [Example 33, Imidazo[1,2-a]pyrimidine-6-carboxylic acid [5-(3-methoxy-benzenesulfonyl)-pyridin-2-ylmethyl]-amide]: 28.6 nM and 4.6 nM.
For `COc1cccc(S(=O)(=O)c2ccc(CNC(=O)c3cnc4[nH]ncc4c3)nc2)c1` [Example 34, 1H-Pyrazolo[3,4-b]pyridine-5-carboxylic acid [5-(3-methoxy-benzenesulfonyl)-pyridin-2-ylmethyl]-amide] the same measures were 104 nM and 59.9 nM.
Regarding `O=C(NCc1ccc(S(=O)(=O)c2ccc(N3CCOCC3)nc2)cn1)c1ccc2nccn2c1` [Example 35, Imidazo[1,2-a]pyridine-6-carboxylic acid [5-(6-morpholin-4-yl-pyridine-3-sulfonyl)-pyridin-2-ylmethyl]-amide], the figures for the IC50 in the test with A2780 cells (setting [1]) and on NAMPT were 2 nM and 8.6 nM, respectively.

The values are drawn from patent US9458172B2, “Pyridinyl and pyrimidinyl sulfoxide and sulfone derivatives” (priority 2012, dated 2016).
